Experimental data taken from patent US9670184B2, “Amorphous allisartan isoproxil, preparation method therefor, and pharmaceutical composition containing amorphous allisartan isoproxil” (SHENZHEN SALUBRIS PHARMACEUTICALS CO. LTD, priority 2013, dated 2017).

Key:
Type in all cases: physicochemical
[1] = Repose angle of powders by fixed-funnel method; conditions: powder sieved through 100-mesh screen
Excerpt: (§1) The powders of experiment 1 and 3 were pulverized and then sieved through a 100-mesh screen to obtain powders with particle size similar to the crystal powder. Then the repose angles of the powders were detected respectively by using a fixed-funnel method; and the bulk densities of the powders were detected respectively by using measurement in a graduated cylinder (Method I of Bulk Density disclosed in Ph. Eur), and the results were shown in the table below: […]

[2] = Bulk density of powders, measurement in a graduated cylinder (Method I of Bulk Density, Ph. Eur); conditions: powder sieved through 100-mesh screen
Excerpt: as §1

[3] = Electrostatic phenomenon of the dried powder (observation); conditions: powder after drying

Row | Repose Angle [1] | Bulk Density [2] | Electrostatic phenomenon [3] | SMILES
1 | 48-53 ° | 0.51 g/mL | obvious electrostatic phenomenon | CCCCc1nc(Cl)c(C(=O)OCOC(=O)OC(C)C)n1Cc1ccc(-c2ccccc2-c2nnn[nH]2)cc1 [Patent Crystal, 2-butyl-4-chloro-1-[2′-(1H-tetrazol-5-yl)-1,1′-biphenyl-methyl]-imidazole-5-carboxylic acid, 1-[(isopropoxy)-carbonyloxy]methyl ester, reference compound]
2 | 33-36 ° | 0.77 g/mL | no obvious electrostatic phenomenon | CCCCc1nc(Cl)c(C(=O)OCOC(=O)OC(C)C)n1Cc1ccc(-c2ccccc2-c2nnn[nH]2)cc1 [Amorphous allisartan isoproxil obtained from experiment 1] [2-butyl-4-chloro-1-[2′-(1H-tetrazol-5-yl)-1,1′-biphenyl-methyl]-imidazole-5-carboxylic acid, 1-[(isopropoxy)-carbonyloxy]methyl ester]
3 | 33-36 ° | 0.79 g/mL | no obvious electrostatic phenomenon | CCCCc1nc(Cl)c(C(=O)OCOC(=O)OC(C)C)n1Cc1ccc(-c2ccccc2-c2nnn[nH]2)cc1 [Amorphous allisartan isoproxil obtained from experiment 3] [2-butyl-4-chloro-1-[2′-(1H-tetrazol-5-yl)-1,1′-biphenyl-methyl]-imidazole-5-carboxylic acid, 1-[(isopropoxy)-carbonyloxy]methyl ester]
4 |  |  | no obvious electrostatic phenomenon | CCCCc1nc(Cl)c(C(=O)OCOC(=O)OC(C)C)n1Cc1ccc(-c2ccccc2-c2nnn[nH]2)cc1 [Experiment 2, 2-butyl-4-chloro-1-[2′-(1H-tetrazol-5-yl)-1,1′-biphenyl-methyl]-imidazole-5-carboxylic acid, 1-[(isopropoxy)-carbonyloxy]methyl ester]
